Laboratory results published in PubChem BioAssay (NCI).
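Grown in 96-well plates, cells were treated for 48 hours with each compound at five concentrations. Insufficient inhibition: endpoint recorded as highest concentration tested. TGI: concentration producing complete growth inhibition.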

How the values were obtained:
Assay in all cases: NCI-60 cell line screen, 48 h
DMS 114 small cell lung = test system: DMS 114 small cell lung
SK-MEL-5 melanoma = test system: SK-MEL-5 melanoma
DLD-1 colon = test system: DLD-1 colon
LXFL 529 NSCLC = test system: LXFL 529 NSCLC
OVCAR-5 ovarian = test system: OVCAR-5 ovarian
UACC-257 melanoma = test system: UACC-257 melanoma
HT29 colon = test system: HT29 colon
A498 renal = test system: A498 renal
MOLT-4 leukemia = test system: MOLT-4 leukemia
HOP-92 NSCLC = test system: HOP-92 NSCLC
NCI-H460 lung = test system: NCI-H460 lung
DMS 273 small cell lung = test system: DMS 273 small cell lung
LOX IMVI melanoma = test system: LOX IMVI melanoma
CCRF-CEM leukemia = test system: CCRF-CEM leukemia
COLO 205 colon = test system: COLO 205 colon
RXF 393 renal = test system: RXF 393 renal
IGROV1 ovarian = test system: IGROV1 ovarian
SNB-19 CNS = test system: SNB-19 CNS
NCI-H522 lung = test system: NCI-H522 lung
HOP-18 NSCLC = test system: HOP-18 NSCLC
SN12C renal = test system: SN12C renal
RXF-631 renal = test system: RXF-631 renal
U251 CNS = test system: U251 CNS
HCT-15 colon = test system: HCT-15 colon
ACHN renal = test system: ACHN renal
SF-539 CNS = test system: SF-539 CNS
SK-MEL-28 melanoma = test system: SK-MEL-28 melanoma
SF-295 CNS = test system: SF-295 CNS
SNB-75 CNS = test system: SNB-75 CNS
OVCAR-8 ovarian = test system: OVCAR-8 ovarian
M19-MEL melanoma = test system: M19-MEL melanoma
TK-10 renal = test system: TK-10 renal
SR leukemia = test system: SR leukemia
SK-MEL-2 melanoma = test system: SK-MEL-2 melanoma
HOP-62 NSCLC = test system: HOP-62 NSCLC
A549 NSCLC = test system: A549 NSCLC
M14 melanoma = test system: M14 melanoma
OVCAR-3 ovarian = test system: OVCAR-3 ovarian
SF-268 CNS = test system: SF-268 CNS
K-562 leukemia = test system: K-562 leukemia
SW-620 colon = test system: SW-620 colon
HCT-116 colon = test system: HCT-116 colon
UO-31 renal = test system: UO-31 renal
EKVX NSCLC = test system: EKVX NSCLC
UACC-62 melanoma = test system: UACC-62 melanoma
NCI-H23 lung = test system: NCI-H23 lung
KM12 colon = test system: KM12 colon
786-0 renal = test system: 786-0 renal
KM20L2 colon = test system: KM20L2 colon
MALME-3M melanoma = test system: MALME-3M melanoma
CAKI-1 renal = test system: CAKI-1 renal
XF 498 CNS = test system: XF 498 CNS
OVCAR-4 ovarian = test system: OVCAR-4 ovarian
HL-60(TB) leukemia = test system: HL-60(TB) leukemia
SK-OV-3 ovarian = test system: SK-OV-3 ovarian
NCI-H226 lung = test system: NCI-H226 lung
RPMI-8226 leukemia = test system: RPMI-8226 leukemia
HCC-2998 colon = test system: HCC-2998 colon
SNB-78 CNS = test system: SNB-78 CNS

Measured: TGI

CC(=O)O/N=C/c1ncccc1CO
> 100 µM: DMS 114 small cell lung | SK-MEL-5 melanoma | DLD-1 colon | LXFL 529 NSCLC | OVCAR-5 ovarian | UACC-257 melanoma | HT29 colon | A498 renal | MOLT-4 leukemia | HOP-92 NSCLC | NCI-H460 lung | DMS 273 small cell lung | LOX IMVI melanoma | CCRF-CEM leukemia | COLO 205 colon | RXF 393 renal | IGROV1 ovarian | SNB-19 CNS | NCI-H522 lung | HOP-18 NSCLC | SN12C renal | RXF-631 renal | U251 CNS | HCT-15 colon | ACHN renal | SF-539 CNS | SK-MEL-28 melanoma | SF-295 CNS | SNB-75 CNS | OVCAR-8 ovarian | M19-MEL melanoma | TK-10 renal | SR leukemia | SK-MEL-2 melanoma | HOP-62 NSCLC | A549 NSCLC | M14 melanoma | OVCAR-3 ovarian | SF-268 CNS | K-562 leukemia | SW-620 colon | HCT-116 colon | UO-31 renal | EKVX NSCLC | UACC-62 melanoma | NCI-H23 lung | KM12 colon | 786-0 renal | KM20L2 colon | MALME-3M melanoma | CAKI-1 renal | XF 498 CNS | OVCAR-4 ovarian | HL-60(TB) leukemia | SK-OV-3 ovarian | NCI-H226 lung

C=CCc1cc2cccc(OC)c2oc1=O
69.2 µM: UO-31 renal
53.5 µM: XF 498 CNS
> 100 µM: DMS 114 small cell lung | RPMI-8226 leukemia | HCC-2998 colon | SK-MEL-5 melanoma | DLD-1 colon | LXFL 529 NSCLC | OVCAR-5 ovarian | UACC-257 melanoma | HT29 colon | A498 renal | MOLT-4 leukemia | HOP-92 NSCLC | NCI-H460 lung | DMS 273 small cell lung | LOX IMVI melanoma | CCRF-CEM leukemia | COLO 205 colon | IGROV1 ovarian | SNB-19 CNS | NCI-H522 lung | HOP-18 NSCLC | SN12C renal | RXF-631 renal | U251 CNS | HCT-15 colon | ACHN renal | SF-539 CNS | SK-MEL-28 melanoma | SF-295 CNS | SNB-75 CNS | OVCAR-8 ovarian | M19-MEL melanoma | TK-10 renal | SR leukemia | SK-MEL-2 melanoma | HOP-62 NSCLC | A549 NSCLC | M14 melanoma | OVCAR-3 ovarian | SF-268 CNS | K-562 leukemia | SNB-78 CNS | SW-620 colon | HCT-116 colon | EKVX NSCLC | UACC-62 melanoma | NCI-H23 lung | KM12 colon | 786-0 renal | KM20L2 colon | MALME-3M melanoma | CAKI-1 renal | OVCAR-4 ovarian | HL-60(TB) leukemia | NCI-H226 lung

O=[As](O)(O)c1cc(N=Nc2ccc(-c3ccc(N=Nc4cc([As](=O)(O)O)c(O)cc4O)cc3)cc2)c(O)cc1O
> 59.2 µM: DLD-1 colon
> 78.4 µM: OVCAR-3 ovarian
> 80 µM: CCRF-CEM leukemia
> 67.6 µM: HL-60(TB) leukemia
> 73.4 µM: A498 renal
> 56.8 µM: OVCAR-4 ovarian
97.6 µM: OVCAR-5 ovarian
> 100 µM: DMS 114 small cell lung | RPMI-8226 leukemia | HCC-2998 colon | SK-MEL-5 melanoma | LXFL 529 NSCLC | UACC-257 melanoma | HT29 colon | MOLT-4 leukemia | HOP-92 NSCLC | NCI-H460 lung | DMS 273 small cell lung | LOX IMVI melanoma | COLO 205 colon | RXF 393 renal | IGROV1 ovarian | SNB-19 CNS | NCI-H522 lung | HOP-18 NSCLC | SN12C renal | RXF-631 renal | U251 CNS | HCT-15 colon | ACHN renal | SF-539 CNS | SK-MEL-28 melanoma | SF-295 CNS | SNB-75 CNS | OVCAR-8 ovarian | M19-MEL melanoma | TK-10 renal | SR leukemia | SK-MEL-2 melanoma | HOP-62 NSCLC | A549 NSCLC | M14 melanoma | SF-268 CNS | K-562 leukemia | SNB-78 CNS | SW-620 colon | HCT-116 colon | UO-31 renal | EKVX NSCLC | UACC-62 melanoma | NCI-H23 lung | KM12 colon | 786-0 renal | KM20L2 colon | MALME-3M melanoma | CAKI-1 renal | SK-OV-3 ovarian | NCI-H226 lung

O=C1C(Br)=C[C@H]2C3C=CC(Br)(C3=O)[C@@H]12 (stereo partly specified)
51 µM: SF-295 CNS
23 µM: HL-60(TB) leukemia
34.3 µM: ACHN renal
50.1 µM: RXF-631 renal
27 µM: DMS 273 small cell lung
22.8 µM: HCT-116 colon
37.9 µM: A498 renal
> 100 µM: RPMI-8226 leukemia | HOP-18 NSCLC | K-562 leukemia | SNB-78 CNS | SK-OV-3 ovarian
27.2 µM: SK-MEL-5 melanoma | MOLT-4 leukemia
39.4 µM: SF-539 CNS
27.1 µM: OVCAR-3 ovarian
20.5 µM: DLD-1 colon
29 µM: OVCAR-5 ovarian
26 µM: OVCAR-8 ovarian
40.9 µM: NCI-H226 lung
28.4 µM: SK-MEL-2 melanoma
28.8 µM: EKVX NSCLC
29.4 µM: IGROV1 ovarian | OVCAR-4 ovarian
24.4 µM: KM12 colon
25.9 µM: SN12C renal
31.1 µM: UO-31 renal
92.8 µM: SNB-75 CNS
14.9 µM: UACC-62 melanoma
13.7 µM: CCRF-CEM leukemia
29.7 µM: HOP-92 NSCLC
23.8 µM: HT29 colon
24.8 µM: UACC-257 melanoma | M19-MEL melanoma
24.6 µM: HCT-15 colon
21.6 µM: M14 melanoma
32.6 µM: SNB-19 CNS
43.6 µM: SF-268 CNS
92.5 µM: HOP-62 NSCLC
25.7 µM: SK-MEL-28 melanoma
48.2 µM: 786-0 renal
26.2 µM: HCC-2998 colon | MALME-3M melanoma
25 µM: NCI-H23 lung
21.4 µM: COLO 205 colon
76.9 µM: A549 NSCLC
27.3 µM: RXF 393 renal | U251 CNS
24 µM: CAKI-1 renal
18.2 µM: NCI-H522 lung | KM20L2 colon
31.2 µM: XF 498 CNS
28.3 µM: DMS 114 small cell lung
21.8 µM: LXFL 529 NSCLC
21.1 µM: SW-620 colon
